Assay results reported in patent US6828342B2, “Nitric esters and nitrate salts of specific drugs” (priority 1999, dated 2004).
Counter-ions that a name gives are not always drawn.

Assays:
[1] = tested on: phenol red in the tracheal secretion; test: Mucolitic activity in mice: phenol red in the tracheal secretion; assay type: in vivo
Protocol: Mucolitic Activity in Mice of Ambroxol Nitrate and Ambroxol Hydrochloride
Mucolitic activity in male mice was evaluated according to the Method of Engler and Zselenyi, J. Pharm. Methods 11, 151, 1984. By this method it is determined the quantity of phenol red in the tracheal secretion. The animals were previously administered i.p. at a dose of 500 mg/Kg with the dye dissolved in physiologic solution. 3 groups of mice (weight 18±2 g), of 10 animal each, were treated i.p. with the dye. One group was the control group. Each of the two treated groups received, ten minutes before the above injection, an i.p. injection of 264 micromoles/Kg of Ambroxol nitrate or Ambroxol hydrochloride, respectively. 30 minutes after the phenol red injection, the animals were sacrificed. The trachea was freed from the sorrounding tissues, dissected and washed for 30 minutes in 3 ml of physiologic solution. 0.1 ml of 1 M sodium hydroxyde were then added to the physiologic solution. The washings were centrifuged for 15 minutes at 3000 rpm. A spectrophotometric assay was performed on the supernatant in order to determine the concentration of phenol red in the physiologic solution. Mucolitic activity was determined as % variation of absorbance of the sample in the confront of that of the control group, assumed to be 100%.

[2] = tested on: histamine-induced bronchoconstriction; test: Antihistaminic activity: experimental bronchoconstriction by histamine in the guinea pig; details: result in words
[3] = tested on: cough strokes caused by citric acid aerosol; test: Anti-tussive activity: cough strokes caused by citric acid aerosol in the guinea pig; assay type: in vivo; details: 110 micromoles/Kg i.p.; for cough strokes (%): citric acid 7.5% aerosol, 30 minutes before aerosol, cough strokes over 10 minutes referred to control = 100%; for Antitussive potency compared with the corresponding hydrochlorides: result in words
Protocol: Anti-tussive Activity in the Guinea Pig of Dextromethorphan Hydrochloride, Dextromethorphan Nitrate, Dextrorphan Hydrochloride and Dextrorphan Nitrate
Guinea pigs (weight: 430+20) were treated as described by Braga et Al. Arzneim. Forsch./Drug Res. 43, 550, 1993.
In this pharmacological experiment 5 groups of 8 animals each were formed. One group was not treated and was the control group.
Each animal was placed in a cilindrical glass container having one tubing through each of the two circular flat surfaces. Said tubing were, respectively, for the aerosol inlet and outlet. The outlet tubing is connected to a polygraphic system.
The aerosol was formed from a solution 7.5% by weight of citric acid in water.
The air variation inside the glass container was registered before and after a cough stroke caused by the aerosol. One hour later Dextromethorphan hydrochloride, Dextromethorphan nitrate, Dextrorphan hydrochloride and dextrorphan nitrate were i.p. administered in a physiologic solution at a dose of 110 micromoles/Kg. 30 minutes after the injection the animals were treated with the aerosol. It was then registered the number of cough strokes for a time of 10 minutes. In the following Table III are reported the average response obtained from each treated group, referred to that of the control group, made 100%.

[4] = tested on: bronchoconstrictive response induced by capsaicin; test: Experimental bronchoconstriction induced by capsaicin in the guinea pig (tidal air variation, Konzett apparatus); assay type: in vivo; details: 0.3 nmoles/min i.v., result in words
Protocol: Each groups consisted of eight animals. […] For a total 15 minutes, starting from 5 minutes before capsaicin injection to 10 minutes after) Salbutamol (0.3 nmoles/min), or the corresponding nitrate salt (0.3 nmoles/min) or only the carrier were administered by intravenous infusion were administered to each group. […] The heart frequency was determined by an electrocardiographic device, according to the usual methods.

[5] = tested on: heart frequency; test: Heart frequency (tachycardia) by electrocardiographic device in the capsaicin bronchoconstriction study; assay type: in vivo; details: guinea pig; 0.3 nmoles/min i.v. infusion; heart frequency as percent with respect to the control (carrier 188 ±7 beats per minute = 100); Nitrate Salt
Protocol: Each groups consisted of eight animals. […] For a total 15 minutes, starting from 5 minutes before capsaicin injection to 10 minutes after) Salbutamol (0.3 nmoles/min), or the corresponding nitrate salt (0.3 nmoles/min) or only the carrier were administered by intravenous infusion were administered to each group.
The heart frequency was determined by an electrocardiographic device, according to the usual methods.

Nc1c(Br)cc(Br)cc1CNC1CCC(O)CC1 (centres unmarked) [Ambroxol hydrochloride, reference compound]
Mucolitic activity (%) ([1]; male mice, 264 micromoles/Kg i.p. ten minutes before phenol red 500 mg/Kg i.p., % variation of absorbance versus control group = 100%, hydrochloride): 30%

Nc1c(Br)cc(Br)cc1CNC1CCC(O)CC1 (centres unmarked) [Ambroxol nitrate, Ambroxol Nitrate Salt]
Mucolitic activity compared with the corresponding hydrochloride ([1]; mice, 264 micromoles/Kg i.p., result in words): higher than that of the corresponding hydrochloride

O=C(O)COCCN1CCN(C(c2ccccc2)c2ccc(Cl)cc2)CC1 (centres unmarked) [Cetirizine nitrate, Cetirizine Nitrate Salt]
Antihistamine activity compared with Cetirizine hydrochloride [2]: improved antihistamine activity

COc1ccc2c(c1)[C@@]13CCCC[C@H]1[C@@H](C2)N(C)CC3 [Dextromethorphan hydrochloride, reference compound]
cough strokes (%) ([3]; hydrochloride): 30%

COc1ccc2c(c1)[C@@]13CCCC[C@H]1[C@@H](C2)N(C)CC3 [Dextromethorphan nitrate, Dextromethorphan Nitrate Salt]
Antitussive potency compared with the corresponding hydrochlorides [3]: more potent antitussive agents than the corresponding hydrochlorides
cough strokes (%) ([3]; Nitrate Salt): 0%

CN1CC[C@]23CCCC[C@H]2[C@H]1Cc1ccc(O)cc13 [Dextrorphan hydrochloride, reference compound]
cough strokes (%) ([3]; hydrochloride): 40%

CN1CC[C@]23CCCC[C@H]2[C@H]1Cc1ccc(O)cc13 [Dextrorphan nitrate, Dextrorphan Nitrate Salt]
Antitussive potency compared with the corresponding hydrochlorides [3]: more potent antitussive agents than the corresponding hydrochlorides
cough strokes (%) ([3]; Nitrate Salt): 0%

CC(C)(C)NCC(O)c1ccc(O)c(CO)c1 (centres unmarked) [Salbutamol · HNO3, Salbutamol Nitrate Salt]
Inhibition of the bronchoconstrictive response induced by capsaicin, compared with Salbutamol [4]: as effective as Salbutamol
Tachycardia (%) [5]: 97%
